In patent publication US20220387370A1, “METHODS OF REDUCING NEUROLOGICAL DAMAGE IN WILSON DISEASE PATIENTS” (priority 2019, published 2022):
Entries after “also recorded” stand apart in the source; their conditions may differ.

How the values were obtained:
[1] = system: HepG2, EA.hy926, U87MG and SHSY5Y cells; experiment: Toxicity of the chelator itself in a copper-free setting, CellTiter-Glo; details: without external Cu-albumin addition
Protocol: (§1) SHSY5Y (human neuroblastoma), U87MG (human astrocytoma), EA.hy926 (human endothelium) and HepG2 (human hepatocellular carcinoma) cells were from ATCC (Wesel, Germany) and were cultured in Dulbecco's Modified Eagle Medium (DMEM) supplemented with 10% FCS (Biochrom, Berlin, Germany) and 1% antibiotic-antimycotic (Life Technologies, Carlsbad, USA). All cells were maintained at 37° C. in a humidified atmosphere with 5% CO2.

PBCEC monolayers [2] = experiment: Electron microscopy of tight junctions of PBCECs; assay type: cell-based, porcine; details: copper-treated PBCECs, electron micrographs
Protocol: Electron microscopy of PBCECS grown on Transwell® inserts was performed as previously described (Ye, D., K. A. Dawson, and I. Lynch, Analyst, 2015. 140(1): p. 83-97) with minor modifications. Briefly, after fixation with 2.5% glutaraldehyde, cell monolayers were post-fixed with 1% osmium tetroxide for 30 min and dehydrated by ethanol.

Cu-albumin = Cu-albumin (Bos taurus, UniProt P02769)
Cu-albumin, sequence (P02769 25-607): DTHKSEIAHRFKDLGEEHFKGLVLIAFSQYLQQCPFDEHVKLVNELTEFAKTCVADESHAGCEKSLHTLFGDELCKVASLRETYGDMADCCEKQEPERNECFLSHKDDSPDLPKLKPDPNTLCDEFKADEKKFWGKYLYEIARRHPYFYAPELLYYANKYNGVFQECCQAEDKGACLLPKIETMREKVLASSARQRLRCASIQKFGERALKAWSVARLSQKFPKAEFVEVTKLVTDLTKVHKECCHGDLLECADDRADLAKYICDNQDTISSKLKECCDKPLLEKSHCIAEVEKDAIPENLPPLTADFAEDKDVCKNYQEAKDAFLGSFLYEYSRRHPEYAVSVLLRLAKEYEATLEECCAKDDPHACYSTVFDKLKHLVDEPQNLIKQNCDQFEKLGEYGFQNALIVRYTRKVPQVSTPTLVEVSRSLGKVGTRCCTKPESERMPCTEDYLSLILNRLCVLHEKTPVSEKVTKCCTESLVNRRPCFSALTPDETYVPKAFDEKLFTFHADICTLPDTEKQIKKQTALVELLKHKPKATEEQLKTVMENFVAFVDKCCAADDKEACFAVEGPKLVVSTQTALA
Protocol: EPR spectra were recorded at 77 K using an ECS106 spectrometer (Brucker BioSpin, Karlsruhe, Germany) operating in X-band at about 9.5 GHz.

SHSY5Y cells = experiment: Cellular copper content (ICP-OES), SHSY5Y; assay type: cell-based, human; details: 750 μM copper, 250 μM albumin, 750 μM chelator, vs Cu-albumin alone
Source text: (§2) Afterwards, cells were trypsinized and counted.

[3] = system: HepG2, EA.hy926, U87MG and SHSY5Y cells; experiment: Cu-albumin cell toxicity, CellTiter-Glo, all investigated cell lines; assay type: cell-based, human; details: 750 μM chelator, 250 μM albumin, copper 250 to 2500 μM, 24 h
Protocol: as §1

[4] = system: HepG2, EA.hy926, U87MG and SHSY5Y cells; details: 750 μM copper, 250 μM albumin, 750 μM chelator
Protocol: 2×10^4 cells were seeded into each well of a 96-well plate and incubated overnight. […] Cell toxicity was either determined by CellTiter-Glo® assay (Promega, Madison, USA) or Trypan blue exclusion test.
Afterwards, cells were trypsinized and counted. Cell viability was determined by Trypan blue exclusion test.

U87MG cells [5] = details: 750 μM chelator
Protocol: as §1

[6] = target: Cu-albumin complex (bovine serum albumin) (Bos taurus, UniProt P02769); details: 750 μM copper, 250 μM albumin, molar ratio Cu-albumin-chelator 3:1:3
Cu-albumin complex (bovine serum albumin), sequence (P02769 25-607, one chain of several): as the sequence (P02769 25-607) above
Protocol: 10 mg of fatty acid free bovine serum albumin (subsequently referred to as albumin, Carl Roth, Karlsruhe, Germany) were resuspended in 10 mM Tris-HCl buffer (pH 7.4) and mixed with 45 μL of 10 mM copper chloride. […] Briefly, 50 μL of each fraction were mixed with 10 μL 0.2% NQS, 10 μL of 0.2 M sodium phosphate buffer (pH 12.0) and 30 μL ddH2O in a clear 96-well plate. The samples were incubated for 20 min and absorbance was measured at 452 nm.

U87MG cells [7] = details: U87MG cells subjected to respirometry (FIG. 6A), non-toxic Cu-albumin setting
Source text: as §2

EA.hy926 cells = experiment: Cu-albumin cell toxicity, CellTiter-Glo, EA.hy926; assay type: cell-based, human
Protocol: as §1

EA.hy926 and U87MG cells = experiment: Electron microscopy of mitochondrial structure; assay type: cell-based, human; details: electron micrographs, co-treatment with chelator
Source text: Electron microscopy of cells was done as previously described ([…]., et al., Cell Mol Gastroenterol Hepatol, 2018. 7(3): p. 571-596) on a 1200EX electron microscope (JEOL, […], Japan) at 60 kv. Pictures were taken with a […] digital camera (Olympus, Hamburg, Germany) and processed by the iTEM software package (analySIS FIVE, Olympus, Hamburg, Germany).

HepG2 cells = experiment: Cellular copper content (ICP-OES), HepG2; assay type: cell-based, human; details: 750 μM copper, 250 μM albumin, 750 μM chelator, vs Cu-albumin alone
Source text: as §2

PBCEC monolayers [8] = experiment: Copper in the basolateral compartment of the Transwell PBCEC model (ICP-MS/MS); assay type: cell-based, porcine; details: 250 μM copper and 83.3 μM albumin, 250 μM chelator, after 48 h
Source text: For transepithelial resistance (TEER) experiments (Srinivasan, B., et al., J Lab Autom, 2015. 20(2): p. 107-26), cryopreserved primary porcine brain capillary endothelial cells (PBCECs) were thawed and seeded either on rat tail collagen-coated 96-well plates for cytotoxicity testing using the Neutral red assay (Repetto, G., A. del Peso, and J. L. Zurita, Nat Protoc, 2008. 3(7): p. 1125-31) or Transwell® inserts (area: 1.12 cm^2, pore size: 0.4 μm: Corning, N.Y., USA) for barrier integrity studies. Cells were cultured for 48 hours in Earle's Medium 199 supplemented with 10% FCS, 50 U penicillin/mL, 50 μg/mL streptomycin, 100 μg/mL gentamycin and 0.7 mM I-glutamine and maintained at 37° C. in a humidified atmosphere with 5% CO2. […] TEER and capacitance values were continuously monitored over 48 h using a CellZscope device (nanoAnalytics, Münster, Germany). Only PBCEC monolayers with initial TEER values >600Ωcm^2 and capacitance values between 0.45 and 0.6 μF/cm^2 were used for permeability studies (Bornhorst, J., et al., J Biol Chem, 2012. 287(21): p. 17140-51). The barrier integrity was calculated by normalizing the TEER values to the respective start values.

Atp7b^−/− rats = experiment: Chelator treatment of WD rats: copper in serum, urine and feces (ICP-OES); assay type: in vivo, rat
Protocol: Control Atp7b^+/- and WD Atp7b^-/- rats were fed ad libitum with normal chow (1314; 13.89 mg Cu/kg; Altromin Spezialfutter GmbH, […], Germany) and tap water. All rats were healthy at treatment start and presented no signs of acute liver damage (serum AST <200 U/L and serum bilirubin <0.5 mg/dl). […] Untreated Atp7b^+/- and Atp7b^-/- rats served as controls. Urine and feces were collected at 24-hour intervals for which rats were housed individually in metabolic cages for 4 days. After a two-day resting period off treatment in normal cages and group housing, rats were sacrificed for serum collection.

patients with WD = details: cited from earlier work

With `C[N+](C)(C)CCO.C[N+](C)(C)CCO.[SH-].[SH-].[S]=[Mo]=[S]` [ALXN1840, bis-choline tetrathiomolybdate] the “CellTiterGlo-assessed cell viability with chelator alone” value [1] was “becomes toxic at elevated concentrations; also recorded: dose-dependent reduction”, the “loss of electron-dense protein complexes at the cell-cell borders” value (PBCEC monolayers [2]) was “can be prevented” and the “drop of signal intensity of EPR-active cupric copper” value (Cu-albumin; TPC versus Cu-albumin) was “around 50%”. For the same compound, the “copper redox status in the tripartite complex (EPR)” value (Cu-albumin; albumin, copper and ALXN1840) was “partial reduction of copper”, the cellular copper content (SHSY5Y cells) was “this effect was not present” and the “CellTiterGlo-assessed cell viability / Cu-albumin toxicity” value [3] was “fully avoided such toxicity up to a Cu-albumin ratio of 4:1”. The “Trypan blue-assessed cell viability / copper-related cell toxicity” value [4] was “cellular viability was significantly maintained; also recorded: protected all cell lines”, the “CellTiterGlo-assessed cell viability / Cu-albumin toxicity” value (U87MG cells [5]) was “protected” and the “distribution of copper, albumin and chelator over gel filtration fractions” value [6] was “one prominent gel filtration peak appeared; also recorded: albumin, molybdenum and copper were present in the same fractions”. The cellular copper content (U87MG cells [7]) was “significantly lower”, the “CellTiterGlo-assessed cell viability / Cu-albumin toxicity” value (EA.hy926 cells; EA.hy926, 750 μM chelator) was “protected” and the “CellTiterGlo-assessed cell viability / Cu-albumin toxicity” value (EA.hy926 cells; EA.hy926, low dose of chelator (250 μM)) was “partially rescued”. The “Cu-albumin-induced alterations of mitochondrial structure” value (EA.hy926 and U87MG cells) was “partially avoided these structural abnormalities; also recorded: partially reversed”, the cellular copper content (HepG2 cells) was “highly similar cellular copper contents; also recorded: this effect was not present” and the “copper in the basolateral compartment (copper influx)” value (PBCEC monolayers [8]) was “fully avoided; also recorded: significantly lower amount of copper”. The fecal copper excretion (Atp7b^−/− rats; during treatment) was “unchanged”, the urinary copper excretion (Atp7b^−/− rats; during treatment, urine collected over 24 h) was “lack of urinal copper excretion” and the serum copper levels (Atp7b^−/− rats; i.p. once daily for 4 consecutive days (ALXN1840 2.5 mg/kg bw, DPA 100 mg/kg bw), serum at sacrifice after resting period) was “significantly increased; also recorded: increased serum copper levels”. The “net copper excretion (urine and feces)” value (Atp7b^−/− rats; observation period of 96 hours) was “no profoundly elevated net copper excretion”, the “reduction of mean serum non-ceruloplasmin-bound Cu (NCC)” value (patients with WD; at Week 24 compared with baseline, 28 patients with WD) was 72% and the “patients with reversible liver function test elevations” value (patients with WD; mild to moderate, asymptomatic, normalized with dose reduction or interruption) was 39%. For the same compound, the tolerability (patients with WD; most AEs mild (Grade 1) to moderate (Grade 2)) was “generally well-tolerated” and the paradoxical neurological worsening (patients with WD; upon treatment initiation) was “No paradoxical neurological worsening was observed”.
